# The kinase profiling compilation of Christmann-Franck et al. (2016)
# Assays:
# Experiment in all cases: radiometric filter-binding kinase assay, Kinase HotSpot
# Conditions in all cases: compound 0.5 µM; ATP 10 µM
# ULK3 (human) = ULK3 (human) (UniProt Q6PHR2)
# CDC42BPB (human) = CDC42BPB (human) (UniProt Q9Y5S2)
# HIPK3 (human) = HIPK3 (human) (UniProt Q9H422)
# PRKACG (human) = PRKACG (human) (UniProt P22612)
# NEK1 (human) = NEK1 (human) (UniProt Q96PY6)
# PHKG1 (human) = PHKG1 (human) (UniProt Q16816)
# TSSK2 (human) = TSSK2 (human) (UniProt Q96PF2)
# HIPK4 (human) = HIPK4 (human) (UniProt Q8NE63)
# TXK (human) = TXK (human) (UniProt P42681)
# SGK3 (human) = SGK3 (human) (UniProt Q96BR1)
# MAPK8 (human) = MAPK8 (human) (UniProt P45983)
# LTK (human) = LTK (human) (UniProt P29376)
# FGR (human) = FGR (human) (UniProt P09769)
# CAMK4 (human) = CAMK4 (human) (UniProt Q16566)
# PLK1 (human) = PLK1 (human) (UniProt P53350)
# CDK3 CCNE1 (human) = CDK3 CCNE1 (human) (UniProt Q00526+P24864)
# ACVR1 (human) = ACVR1 (human) (UniProt Q04771)
# DAPK3 (human) = DAPK3 (human) (UniProt O43293)
# INSRR (human) = INSRR (human) (UniProt P14616)
# RPS6KA3 KD1 KD2 (human) = RPS6KA3 KD1 KD2 (human) (UniProt P51812)
# HIPK2 (human) = HIPK2 (human) (UniProt Q9H2X6)
# MST1R (human) = MST1R (human) (UniProt Q04912)
# IRAK1 (human) = IRAK1 (human) (UniProt P51617)
# KIT (human) = KIT (human) (UniProt P10721)
# PAK6 (human) = PAK6 (human) (UniProt Q9NQU5)
# CSK (human) = CSK (human) (UniProt P41240)
# EPHA6 (human) = EPHA6 (human) (UniProt Q9UF33)
# TLK2 (human) = TLK2 (human) (UniProt Q86UE8)
# PRKCD (human) = PRKCD (human) (UniProt Q05655)
# AURKC (human) = AURKC (human) (UniProt Q9UQB9)
# FGFR1 (human) = FGFR1 (human) (UniProt P11362)
# MET (human) = MET (human) (UniProt P08581)
# BRAF (human) = BRAF (human) (UniProt P15056)
# EPHA3 (human) = EPHA3 (human) (UniProt P29320)
# CLK1 (human) = CLK1 (human) (UniProt P49759)
# TAOK2 (human) = TAOK2 (human) (UniProt Q9UL54)
# TSSK1B (human) = TSSK1B (human) (UniProt Q9BXA7)
# STK38 (human) = STK38 (human) (UniProt Q15208)
# NEK9 (human) = NEK9 (human) (UniProt Q8TD19)
# CSNK2A1 (human) = CSNK2A1 (human) (UniProt P68400)
# MYO3B (human) = MYO3B (human) (UniProt Q8WXR4)
# MST1R (human), sequence (Q04912 whole entry, looked up): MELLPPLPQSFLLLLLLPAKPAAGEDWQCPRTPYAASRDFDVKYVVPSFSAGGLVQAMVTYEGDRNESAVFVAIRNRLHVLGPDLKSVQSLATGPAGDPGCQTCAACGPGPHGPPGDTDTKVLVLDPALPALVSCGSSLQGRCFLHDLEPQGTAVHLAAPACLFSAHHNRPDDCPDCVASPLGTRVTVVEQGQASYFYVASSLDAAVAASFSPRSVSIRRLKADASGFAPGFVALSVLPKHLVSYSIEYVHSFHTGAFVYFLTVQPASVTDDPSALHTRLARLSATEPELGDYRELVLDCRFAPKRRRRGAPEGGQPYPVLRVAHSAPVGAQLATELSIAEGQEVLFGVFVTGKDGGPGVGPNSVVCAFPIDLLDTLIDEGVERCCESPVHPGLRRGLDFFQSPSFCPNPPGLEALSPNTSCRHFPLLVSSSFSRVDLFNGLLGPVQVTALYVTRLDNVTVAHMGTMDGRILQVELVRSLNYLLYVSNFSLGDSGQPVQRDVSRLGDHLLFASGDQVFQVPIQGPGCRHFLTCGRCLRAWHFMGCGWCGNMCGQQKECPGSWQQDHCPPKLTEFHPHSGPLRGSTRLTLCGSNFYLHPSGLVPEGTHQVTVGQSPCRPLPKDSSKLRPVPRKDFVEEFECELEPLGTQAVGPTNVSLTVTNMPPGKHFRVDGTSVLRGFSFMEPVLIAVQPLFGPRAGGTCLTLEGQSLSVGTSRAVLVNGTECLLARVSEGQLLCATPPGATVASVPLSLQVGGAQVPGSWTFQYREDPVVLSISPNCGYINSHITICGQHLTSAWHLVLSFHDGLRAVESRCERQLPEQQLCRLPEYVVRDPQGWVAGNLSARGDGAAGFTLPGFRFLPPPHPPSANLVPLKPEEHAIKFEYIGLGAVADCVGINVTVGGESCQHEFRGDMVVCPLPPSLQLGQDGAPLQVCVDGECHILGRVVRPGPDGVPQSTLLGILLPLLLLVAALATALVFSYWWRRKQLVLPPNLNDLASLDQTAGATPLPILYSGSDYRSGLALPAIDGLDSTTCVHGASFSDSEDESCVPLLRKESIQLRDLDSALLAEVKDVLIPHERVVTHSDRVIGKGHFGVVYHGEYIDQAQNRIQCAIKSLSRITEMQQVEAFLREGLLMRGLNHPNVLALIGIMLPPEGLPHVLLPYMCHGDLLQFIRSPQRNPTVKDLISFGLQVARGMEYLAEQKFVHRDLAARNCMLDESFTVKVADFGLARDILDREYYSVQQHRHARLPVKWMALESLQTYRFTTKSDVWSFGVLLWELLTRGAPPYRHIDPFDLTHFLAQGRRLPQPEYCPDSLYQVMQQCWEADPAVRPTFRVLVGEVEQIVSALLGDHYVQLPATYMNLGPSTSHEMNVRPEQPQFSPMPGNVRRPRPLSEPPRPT
# PLK1 (human), sequence (P53350 whole entry, looked up): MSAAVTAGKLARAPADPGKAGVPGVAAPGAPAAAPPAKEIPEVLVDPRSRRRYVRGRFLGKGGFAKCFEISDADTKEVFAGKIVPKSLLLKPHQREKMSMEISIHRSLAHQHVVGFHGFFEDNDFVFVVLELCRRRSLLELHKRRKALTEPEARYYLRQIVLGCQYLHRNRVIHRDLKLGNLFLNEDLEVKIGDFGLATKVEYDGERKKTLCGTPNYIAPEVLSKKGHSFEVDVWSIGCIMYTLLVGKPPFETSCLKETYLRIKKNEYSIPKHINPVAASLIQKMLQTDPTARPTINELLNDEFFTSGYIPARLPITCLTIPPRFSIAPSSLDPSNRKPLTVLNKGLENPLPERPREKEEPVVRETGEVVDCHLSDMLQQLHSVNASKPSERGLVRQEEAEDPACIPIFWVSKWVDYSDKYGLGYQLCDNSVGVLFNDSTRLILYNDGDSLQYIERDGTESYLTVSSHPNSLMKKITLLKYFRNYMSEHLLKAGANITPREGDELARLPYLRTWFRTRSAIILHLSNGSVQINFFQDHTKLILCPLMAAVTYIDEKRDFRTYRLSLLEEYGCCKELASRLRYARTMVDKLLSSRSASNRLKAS
# LTK (human), sequence (P29376 whole entry, looked up): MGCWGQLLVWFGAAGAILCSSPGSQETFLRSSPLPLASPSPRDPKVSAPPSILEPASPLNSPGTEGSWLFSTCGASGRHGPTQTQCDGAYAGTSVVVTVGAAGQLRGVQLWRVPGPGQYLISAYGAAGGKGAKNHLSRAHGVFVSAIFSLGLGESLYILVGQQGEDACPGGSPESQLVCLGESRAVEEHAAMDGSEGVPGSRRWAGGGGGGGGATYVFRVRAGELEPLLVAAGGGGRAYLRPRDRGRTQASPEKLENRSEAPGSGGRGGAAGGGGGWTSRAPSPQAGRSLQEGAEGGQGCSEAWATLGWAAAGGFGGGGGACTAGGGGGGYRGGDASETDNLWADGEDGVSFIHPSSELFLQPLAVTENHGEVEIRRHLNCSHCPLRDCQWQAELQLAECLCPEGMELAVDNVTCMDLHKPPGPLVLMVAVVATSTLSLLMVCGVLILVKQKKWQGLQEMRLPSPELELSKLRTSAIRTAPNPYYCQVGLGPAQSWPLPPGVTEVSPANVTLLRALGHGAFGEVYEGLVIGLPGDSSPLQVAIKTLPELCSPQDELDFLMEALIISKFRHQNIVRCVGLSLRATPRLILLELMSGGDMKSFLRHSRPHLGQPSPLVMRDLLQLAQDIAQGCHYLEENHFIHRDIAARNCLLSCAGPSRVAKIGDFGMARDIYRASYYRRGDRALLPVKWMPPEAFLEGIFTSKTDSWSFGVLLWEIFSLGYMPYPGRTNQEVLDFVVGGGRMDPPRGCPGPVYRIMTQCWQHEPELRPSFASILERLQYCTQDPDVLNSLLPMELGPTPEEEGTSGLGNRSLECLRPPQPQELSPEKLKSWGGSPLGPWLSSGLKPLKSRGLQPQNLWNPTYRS
# TAOK2 (human), sequence (Q9UL54 whole entry, looked up): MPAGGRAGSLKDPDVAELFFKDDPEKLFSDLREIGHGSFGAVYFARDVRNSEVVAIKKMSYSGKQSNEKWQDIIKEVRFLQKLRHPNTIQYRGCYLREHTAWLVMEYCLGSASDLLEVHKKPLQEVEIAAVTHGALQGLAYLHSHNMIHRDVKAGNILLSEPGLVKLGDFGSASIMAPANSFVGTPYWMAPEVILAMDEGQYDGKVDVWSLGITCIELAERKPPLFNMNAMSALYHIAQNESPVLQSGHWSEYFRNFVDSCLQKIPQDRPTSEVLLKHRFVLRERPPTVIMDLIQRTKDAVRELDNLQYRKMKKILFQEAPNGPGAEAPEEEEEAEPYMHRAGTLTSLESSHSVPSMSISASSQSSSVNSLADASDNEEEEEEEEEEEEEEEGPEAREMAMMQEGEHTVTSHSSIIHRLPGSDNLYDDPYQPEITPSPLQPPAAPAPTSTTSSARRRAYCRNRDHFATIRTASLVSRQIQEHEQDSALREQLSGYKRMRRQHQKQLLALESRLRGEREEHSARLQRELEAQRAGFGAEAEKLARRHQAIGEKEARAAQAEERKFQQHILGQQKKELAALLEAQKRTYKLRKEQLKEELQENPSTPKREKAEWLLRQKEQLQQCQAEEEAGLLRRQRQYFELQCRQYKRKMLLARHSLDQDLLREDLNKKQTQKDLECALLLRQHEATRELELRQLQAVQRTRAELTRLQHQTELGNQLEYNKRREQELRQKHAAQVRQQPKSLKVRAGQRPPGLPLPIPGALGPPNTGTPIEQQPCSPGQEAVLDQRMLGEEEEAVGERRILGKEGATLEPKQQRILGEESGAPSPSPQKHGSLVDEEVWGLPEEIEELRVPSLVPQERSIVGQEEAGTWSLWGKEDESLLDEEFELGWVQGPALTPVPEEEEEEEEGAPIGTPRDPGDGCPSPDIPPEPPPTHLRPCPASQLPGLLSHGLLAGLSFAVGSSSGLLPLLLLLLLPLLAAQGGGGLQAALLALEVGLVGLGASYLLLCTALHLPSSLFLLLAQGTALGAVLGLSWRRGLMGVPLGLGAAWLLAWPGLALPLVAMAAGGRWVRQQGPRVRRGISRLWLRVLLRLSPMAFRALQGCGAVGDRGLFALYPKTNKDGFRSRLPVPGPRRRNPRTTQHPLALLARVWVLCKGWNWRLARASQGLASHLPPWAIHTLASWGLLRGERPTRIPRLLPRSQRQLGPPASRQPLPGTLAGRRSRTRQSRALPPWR
# MAPK8 (human), sequence (P45983 whole entry, looked up): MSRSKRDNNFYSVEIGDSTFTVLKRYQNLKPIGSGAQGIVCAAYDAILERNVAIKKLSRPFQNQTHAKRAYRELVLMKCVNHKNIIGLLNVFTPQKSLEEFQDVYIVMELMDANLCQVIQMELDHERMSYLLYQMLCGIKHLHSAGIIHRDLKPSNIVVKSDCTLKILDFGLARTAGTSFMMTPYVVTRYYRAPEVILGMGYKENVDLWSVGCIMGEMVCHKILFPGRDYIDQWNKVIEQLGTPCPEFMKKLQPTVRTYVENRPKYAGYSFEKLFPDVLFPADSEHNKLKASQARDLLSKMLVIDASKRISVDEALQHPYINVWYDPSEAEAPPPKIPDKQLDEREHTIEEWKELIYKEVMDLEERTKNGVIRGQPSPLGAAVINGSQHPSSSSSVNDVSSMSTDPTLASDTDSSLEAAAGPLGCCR
# ULK3 (human), sequence (Q6PHR2 whole entry, looked up): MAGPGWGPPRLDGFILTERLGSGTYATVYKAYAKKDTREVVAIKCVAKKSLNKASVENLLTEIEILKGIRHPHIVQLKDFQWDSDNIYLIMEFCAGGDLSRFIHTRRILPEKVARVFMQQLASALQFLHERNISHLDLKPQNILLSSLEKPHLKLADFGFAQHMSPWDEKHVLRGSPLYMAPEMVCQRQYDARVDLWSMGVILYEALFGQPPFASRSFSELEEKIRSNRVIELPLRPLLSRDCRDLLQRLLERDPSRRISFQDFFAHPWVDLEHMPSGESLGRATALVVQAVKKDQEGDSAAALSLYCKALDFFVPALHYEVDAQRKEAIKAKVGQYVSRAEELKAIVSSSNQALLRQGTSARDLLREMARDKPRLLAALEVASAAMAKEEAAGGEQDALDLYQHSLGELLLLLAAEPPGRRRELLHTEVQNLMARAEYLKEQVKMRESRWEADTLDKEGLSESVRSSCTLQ
smiles,measurement,setting,value
O=C(CCCc1ccc(-c2ccccc2F)cc1)Nc1ccc(O)cc1,residual activity,ULK3 (human),103%
same,residual activity,CDC42BPB (human),109%
same,residual activity,HIPK3 (human),99.4%
same,residual activity,PRKACG (human),93.5%
same,residual activity,NEK1 (human),100%
same,residual activity,PHKG1 (human),89.1%
same,residual activity,TSSK2 (human),115%
same,residual activity,HIPK4 (human),105%
same,residual activity,TXK (human),97.7%
same,residual activity,SGK3 (human),106%
same,residual activity,MAPK8 (human),103%
same,residual activity,LTK (human),106%
same,residual activity,FGR (human),96%
same,residual activity,CAMK4 (human),99.6%
same,residual activity,PLK1 (human),95.5%
same,residual activity,CDK3 CCNE1 (human),92.6%
same,residual activity,ACVR1 (human),95.2%
same,residual activity,DAPK3 (human),104%
same,residual activity,INSRR (human),92.7%
same,residual activity,RPS6KA3 KD1 KD2 (human),95.8%
same,residual activity,HIPK2 (human),112%
same,residual activity,MST1R (human),106%
same,residual activity,IRAK1 (human),100%
same,residual activity,KIT (human),96.3%
same,residual activity,PAK6 (human),108%
same,residual activity,CSK (human),88%
same,residual activity,EPHA6 (human),89.6%
same,residual activity,TLK2 (human),84.1%
same,residual activity,PRKCD (human),110%
same,residual activity,AURKC (human),95.4%
same,residual activity,FGFR1 (human),98%
same,residual activity,MET (human),114%
same,residual activity,BRAF (human),93%
same,residual activity,EPHA3 (human),100%
same,residual activity,CLK1 (human),101%
same,residual activity,TAOK2 (human),98.4%
same,residual activity,TSSK1B (human),107%
same,residual activity,STK38 (human),109%
same,residual activity,NEK9 (human),92.7%
same,residual activity,CSNK2A1 (human),89.4%
same,residual activity,MYO3B (human),96.3%
Nc1nccc(-c2c(-c3ccc(F)cc3)ncn2C2CCNCC2)n1,residual activity,ULK3 (human),95.5%
same,residual activity,CDC42BPB (human),101%
same,residual activity,HIPK3 (human),97.6%
same,residual activity,PRKACG (human),105%
same,residual activity,NEK1 (human),100%
same,residual activity,PHKG1 (human),98.3%
same,residual activity,TSSK2 (human),100%
same,residual activity,HIPK4 (human),96.6%
same,residual activity,TXK (human),99.1%
same,residual activity,SGK3 (human),97.5%
same,residual activity,MAPK8 (human),94.8%
same,residual activity,LTK (human),97.3%
same,residual activity,FGR (human),95.9%
same,residual activity,CAMK4 (human),103%
same,residual activity,PLK1 (human),101%
same,residual activity,CDK3 CCNE1 (human),95.5%
same,residual activity,ACVR1 (human),86.5%
same,residual activity,DAPK3 (human),96.5%
same,residual activity,INSRR (human),103%
same,residual activity,RPS6KA3 KD1 KD2 (human),92.2%
same,residual activity,HIPK2 (human),106%
same,residual activity,MST1R (human),100%
same,residual activity,IRAK1 (human),114%
same,residual activity,KIT (human),98.4%
same,residual activity,PAK6 (human),111%
same,residual activity,CSK (human),90.8%
same,residual activity,EPHA6 (human),78%
same,residual activity,TLK2 (human),95.1%
same,residual activity,PRKCD (human),99.8%
same,residual activity,AURKC (human),97.8%
same,residual activity,FGFR1 (human),91.2%
same,residual activity,MET (human),104%
same,residual activity,BRAF (human),103%
same,residual activity,EPHA3 (human),97.4%
same,residual activity,CLK1 (human),98.2%
same,residual activity,TAOK2 (human),98%
same,residual activity,TSSK1B (human),106%
same,residual activity,STK38 (human),99.8%
same,residual activity,NEK9 (human),100%
same,residual activity,CSNK2A1 (human),94.7%
same,residual activity,MYO3B (human),97.9%
CN(C)C[C@H]1CCn2c(c(C3=C(c4cn(C)c5ccccc45)C(=O)NC3=O)c3ccccc32)C1,residual activity,ULK3 (human),88.9%
same,residual activity,CDC42BPB (human),103%
same,residual activity,HIPK3 (human),111%
same,residual activity,PRKACG (human),108%
same,residual activity,NEK1 (human),105%
same,residual activity,PHKG1 (human),78.4%
same,residual activity,TSSK2 (human),97.1%
same,residual activity,HIPK4 (human),95.7%
same,residual activity,TXK (human),103%
same,residual activity,SGK3 (human),95%
same,residual activity,MAPK8 (human),100%
same,residual activity,LTK (human),101%
same,residual activity,FGR (human),97.2%
same,residual activity,CAMK4 (human),95.5%
same,residual activity,PLK1 (human),102%
same,residual activity,CDK3 CCNE1 (human),62.4%
same,residual activity,ACVR1 (human),93.3%
same,residual activity,DAPK3 (human),95.2%
same,residual activity,INSRR (human),98.7%
same,residual activity,RPS6KA3 KD1 KD2 (human),1.81%
same,residual activity,HIPK2 (human),94.1%
same,residual activity,MST1R (human),98.3%
same,residual activity,IRAK1 (human),127%
same,residual activity,KIT (human),92.7%
same,residual activity,PAK6 (human),114%
same,residual activity,CSK (human),104%
same,residual activity,EPHA6 (human),100%
same,residual activity,TLK2 (human),88.4%
same,residual activity,PRKCD (human),8.11%
same,residual activity,AURKC (human),93.1%
same,residual activity,FGFR1 (human),87.8%
same,residual activity,MET (human),96.2%
same,residual activity,BRAF (human),95.2%
same,residual activity,EPHA3 (human),99.2%
same,residual activity,CLK1 (human),105%
same,residual activity,TAOK2 (human),87.7%
same,residual activity,TSSK1B (human),104%
same,residual activity,STK38 (human),96.7%
same,residual activity,NEK9 (human),97.6%
same,residual activity,CSNK2A1 (human),98.9%
same,residual activity,MYO3B (human),87.9%
O=C1NC(=O)/C(=C\c2ccc3nccnc3c2)S1,residual activity,ULK3 (human),102%
same,residual activity,CDC42BPB (human),91.3%
same,residual activity,HIPK3 (human),92.4%
same,residual activity,PRKACG (human),99.6%
same,residual activity,NEK1 (human),73.6%
same,residual activity,PHKG1 (human),91.3%
same,residual activity,TSSK2 (human),88.7%
same,residual activity,HIPK4 (human),95%
same,residual activity,TXK (human),96.8%
same,residual activity,SGK3 (human),94.3%
same,residual activity,MAPK8 (human),91.5%
same,residual activity,LTK (human),94.7%
same,residual activity,FGR (human),96.8%
same,residual activity,CAMK4 (human),106%
same,residual activity,PLK1 (human),100%
same,residual activity,CDK3 CCNE1 (human),91.7%
same,residual activity,ACVR1 (human),102%
same,residual activity,DAPK3 (human),93.3%
same,residual activity,INSRR (human),111%
same,residual activity,RPS6KA3 KD1 KD2 (human),101%
same,residual activity,HIPK2 (human),101%
same,residual activity,MST1R (human),97.8%
same,residual activity,IRAK1 (human),85.5%
same,residual activity,KIT (human),87.5%
same,residual activity,PAK6 (human),107%
same,residual activity,CSK (human),86.3%
same,residual activity,EPHA6 (human),82.4%
same,residual activity,TLK2 (human),95.2%
same,residual activity,PRKCD (human),94.4%
same,residual activity,AURKC (human),95.6%
same,residual activity,FGFR1 (human),88.5%
same,residual activity,MET (human),91.2%
same,residual activity,BRAF (human),95.1%
same,residual activity,EPHA3 (human),97.1%
same,residual activity,CLK1 (human),80.1%
same,residual activity,TAOK2 (human),89.9%
same,residual activity,TSSK1B (human),78.6%
same,residual activity,STK38 (human),99.6%
same,residual activity,NEK9 (human),111%
same,residual activity,CSNK2A1 (human),3.08%
same,residual activity,MYO3B (human),83.8%
COc1cc2ncnc(N3CCN(C(=O)Nc4ccc(Oc5ccccc5)cc4)CC3)c2cc1OC,residual activity,ULK3 (human),100%
same,residual activity,CDC42BPB (human),98.3%
same,residual activity,HIPK3 (human),87.4%
same,residual activity,PRKACG (human),103%
same,residual activity,NEK1 (human),92.6%
same,residual activity,PHKG1 (human),89.5%
same,residual activity,TSSK2 (human),79.1%
same,residual activity,HIPK4 (human),75.4%
same,residual activity,TXK (human),99.3%
same,residual activity,SGK3 (human),97.6%
same,residual activity,MAPK8 (human),90.5%
same,residual activity,LTK (human),89.8%
same,residual activity,FGR (human),98.8%
same,residual activity,CAMK4 (human),102%
same,residual activity,PLK1 (human),96.6%
same,residual activity,CDK3 CCNE1 (human),82%
same,residual activity,ACVR1 (human),100%
same,residual activity,DAPK3 (human),101%
same,residual activity,INSRR (human),96.8%
same,residual activity,RPS6KA3 KD1 KD2 (human),115%
same,residual activity,HIPK2 (human),82.8%
same,residual activity,MST1R (human),90.3%
same,residual activity,IRAK1 (human),116%
same,residual activity,KIT (human),48.2%
same,residual activity,PAK6 (human),95.2%
same,residual activity,CSK (human),81.3%
same,residual activity,EPHA6 (human),89.6%
same,residual activity,TLK2 (human),94.7%
same,residual activity,PRKCD (human),84.3%
same,residual activity,AURKC (human),90.3%
same,residual activity,FGFR1 (human),89.6%
same,residual activity,MET (human),107%
same,residual activity,BRAF (human),92.6%
same,residual activity,EPHA3 (human),93.7%
same,residual activity,CLK1 (human),89.4%
same,residual activity,TAOK2 (human),96.3%
same,residual activity,TSSK1B (human),65.2%
same,residual activity,STK38 (human),96.9%
same,residual activity,NEK9 (human),103%
same,residual activity,CSNK2A1 (human),96.2%
same,residual activity,MYO3B (human),95.4%
